For three compounds, IC50 results are on record in US12544374B2, “AZA-quinoline compounds and uses thereof” (Novartis AG, priority 2019, dated 2026).

Test [1] deals with wild type PRC2 (wtPRC2) complex (Homo sapiens (Human), UniProt Q15910). In words: EZH2 LC-MS assay (LC-Qualified). Particulars: (a) LC-Qualified assay. Format: biochemical.
Test [2] concerns the target EZH2 (Homo sapiens (Human), UniProt Q15910). Put plainly: ELISA (H3K27 methylation) assay in G401 cell. In kind it is cell-based. As to conditions: (b) ELISA Qualified assay, 48 h. A digest of the protocol:
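G401 cells were exposed for 48 h to 3-fold serial dilutions (8 or 12 points, top 20 μM final). Lysates were analysed by ELISA, with the H3K27 methylation signal normalized to total H3. Percent inhibition versus vehicle was fit to a dose-response curve for IC50.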

The subject of test [3] is B cell lymphoma cell KARPAS422. Put plainly: Analysis of cell proliferation, KARPAS422. In kind it is cell-based, human. Particulars: Homo sapiens, KARPAS-422, 336 h; KARPAS422 after 14 days of treatment; read-out: antiproliferative activities IC50. As for the experimental part: B cell lymphoma cell KARPAS422 was cultured using standard cell culture conditions in RPMI-1640 (Invitrogen, cat #11875) supplemented with 15% FBS (Invitrogen, cat #10099-141) in humidified incubator at 37° C., 5% CO2. To assess the effect of PRC2 inhibition on cell proliferation, exponentially growing cells were seeded at a density of 1×10^5 cells/mL in 12-well plate (Corning, cat #CLS3513). After cell seeding, a compound of the invention was added to the cell media (in concentrations ranging from 0 to 100 μM, 3× dilution series). Viable cell numbers were determined every 3-4 days for up to 14 days using Vi-CELL (Beckman Coulter). On days of cell counting, fresh growth media and compound were replenished and cells split back to a density of 1×10^5 cells/mL. Total cell number is expressed as split-adjusted viable cells per mL. The dose response curves and IC50 values were generated using Prism.

Sequence of wild type PRC2 (wtPRC2) complex (Q15910 whole entry): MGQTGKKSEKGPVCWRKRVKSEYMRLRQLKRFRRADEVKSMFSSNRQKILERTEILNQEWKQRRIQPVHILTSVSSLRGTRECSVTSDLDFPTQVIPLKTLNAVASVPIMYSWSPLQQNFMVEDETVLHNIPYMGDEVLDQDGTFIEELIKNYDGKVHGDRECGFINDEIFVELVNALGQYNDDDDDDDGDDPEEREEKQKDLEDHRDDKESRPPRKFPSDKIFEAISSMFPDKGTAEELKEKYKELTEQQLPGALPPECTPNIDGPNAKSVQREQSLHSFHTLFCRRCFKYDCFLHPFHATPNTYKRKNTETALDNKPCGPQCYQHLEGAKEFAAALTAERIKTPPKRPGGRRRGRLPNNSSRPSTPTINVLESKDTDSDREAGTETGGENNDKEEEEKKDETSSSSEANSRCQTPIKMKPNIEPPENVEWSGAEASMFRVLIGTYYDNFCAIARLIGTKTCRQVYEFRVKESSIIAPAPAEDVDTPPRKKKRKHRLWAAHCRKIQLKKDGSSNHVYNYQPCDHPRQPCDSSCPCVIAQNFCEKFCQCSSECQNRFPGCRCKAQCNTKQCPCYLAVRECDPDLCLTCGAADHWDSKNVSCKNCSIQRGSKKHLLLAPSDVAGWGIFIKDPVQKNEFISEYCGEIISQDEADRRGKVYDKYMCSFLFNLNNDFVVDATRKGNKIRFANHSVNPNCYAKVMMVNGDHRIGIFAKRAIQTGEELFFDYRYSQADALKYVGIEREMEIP
Sequence of wild type PRC2 (wtPRC2) complex (Q15022 whole entry partner): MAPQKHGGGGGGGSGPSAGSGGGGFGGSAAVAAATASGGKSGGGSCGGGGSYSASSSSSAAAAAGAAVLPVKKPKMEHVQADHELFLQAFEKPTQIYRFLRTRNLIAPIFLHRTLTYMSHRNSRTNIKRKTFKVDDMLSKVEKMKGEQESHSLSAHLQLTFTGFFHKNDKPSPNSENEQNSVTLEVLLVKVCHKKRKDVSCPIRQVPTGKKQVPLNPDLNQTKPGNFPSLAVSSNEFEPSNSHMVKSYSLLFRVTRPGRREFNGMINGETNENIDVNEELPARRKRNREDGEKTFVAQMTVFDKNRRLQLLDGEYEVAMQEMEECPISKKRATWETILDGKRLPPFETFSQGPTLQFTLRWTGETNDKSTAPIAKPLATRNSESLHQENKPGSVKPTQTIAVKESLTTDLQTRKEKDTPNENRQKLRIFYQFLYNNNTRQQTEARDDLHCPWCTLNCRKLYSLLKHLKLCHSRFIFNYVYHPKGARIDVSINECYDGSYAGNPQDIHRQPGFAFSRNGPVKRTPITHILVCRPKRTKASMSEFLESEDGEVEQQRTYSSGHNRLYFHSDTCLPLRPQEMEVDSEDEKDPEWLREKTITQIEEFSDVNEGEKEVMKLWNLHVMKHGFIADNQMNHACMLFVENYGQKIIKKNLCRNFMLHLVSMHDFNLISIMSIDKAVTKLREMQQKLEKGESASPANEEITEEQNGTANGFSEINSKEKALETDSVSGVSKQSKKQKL
Sequence of wild type PRC2 (wtPRC2) complex (O75530 whole entry partner): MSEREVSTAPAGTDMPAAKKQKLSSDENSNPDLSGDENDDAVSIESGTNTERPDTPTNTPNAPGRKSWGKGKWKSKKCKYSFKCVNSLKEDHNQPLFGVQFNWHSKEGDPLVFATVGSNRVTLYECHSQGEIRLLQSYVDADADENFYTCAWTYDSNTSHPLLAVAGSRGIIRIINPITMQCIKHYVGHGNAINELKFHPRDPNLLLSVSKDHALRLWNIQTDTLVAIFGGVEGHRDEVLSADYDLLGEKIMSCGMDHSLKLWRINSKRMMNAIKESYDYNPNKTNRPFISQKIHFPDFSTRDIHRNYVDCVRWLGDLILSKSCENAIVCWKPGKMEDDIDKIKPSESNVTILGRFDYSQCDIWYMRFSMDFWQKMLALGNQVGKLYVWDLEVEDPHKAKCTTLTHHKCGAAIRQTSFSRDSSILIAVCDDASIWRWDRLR
Sequence of wild type PRC2 (wtPRC2) complex (Q09028 whole entry partner): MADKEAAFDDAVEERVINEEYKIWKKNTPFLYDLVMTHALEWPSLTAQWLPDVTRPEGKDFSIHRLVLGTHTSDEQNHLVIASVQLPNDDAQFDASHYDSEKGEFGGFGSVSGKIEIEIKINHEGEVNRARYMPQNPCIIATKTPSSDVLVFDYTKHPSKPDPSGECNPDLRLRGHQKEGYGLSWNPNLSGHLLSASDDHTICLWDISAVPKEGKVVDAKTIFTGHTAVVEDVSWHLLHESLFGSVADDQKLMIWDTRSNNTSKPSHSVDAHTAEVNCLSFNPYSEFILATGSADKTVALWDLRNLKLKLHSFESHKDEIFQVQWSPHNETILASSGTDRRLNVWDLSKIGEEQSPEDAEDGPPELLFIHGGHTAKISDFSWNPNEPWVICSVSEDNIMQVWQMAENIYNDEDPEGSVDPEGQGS
Sequence of wild type PRC2 (wtPRC2) complex (Q6ZN18 whole entry partner): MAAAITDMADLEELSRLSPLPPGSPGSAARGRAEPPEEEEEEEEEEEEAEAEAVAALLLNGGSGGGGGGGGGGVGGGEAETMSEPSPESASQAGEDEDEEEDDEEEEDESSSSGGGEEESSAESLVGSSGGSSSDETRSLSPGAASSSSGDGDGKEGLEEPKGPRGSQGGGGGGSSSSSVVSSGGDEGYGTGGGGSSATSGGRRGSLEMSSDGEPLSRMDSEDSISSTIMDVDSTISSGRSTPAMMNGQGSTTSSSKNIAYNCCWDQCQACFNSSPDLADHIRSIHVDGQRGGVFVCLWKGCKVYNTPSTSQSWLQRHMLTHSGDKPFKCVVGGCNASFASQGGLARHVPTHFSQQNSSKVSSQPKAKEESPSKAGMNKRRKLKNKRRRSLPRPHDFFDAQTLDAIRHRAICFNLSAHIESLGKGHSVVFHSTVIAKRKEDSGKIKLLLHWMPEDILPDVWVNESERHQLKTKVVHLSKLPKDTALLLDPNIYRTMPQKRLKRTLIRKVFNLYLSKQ
Sequence of EZH2 (Q15910 whole entry): as the sequence (Q15910 whole entry) above
Sequence of EZH2 (Q15022 whole entry partner): as the sequence (Q15022 whole entry partner) above
Sequence of EZH2 (O75530 whole entry partner): as the sequence (O75530 whole entry partner) above
Sequence of EZH2 (Q09028 whole entry partner): as the sequence (Q09028 whole entry partner) above

For `O=C(Cc1cnc(NC[C@H]2CC[C@H](Nc3ccc4ccnc(Cl)c4n3)CC2)nc1)N(CCO)C1COC1` [Compound C51, 2-(2-((((1,4-trans)-4-((8-chloro-1,7-naphthyridin-2-yl)amino)cyclohexyl)methyl)amino)pyrimidin-5-yl)-N-(2-hydroxyethyl)-N-(oxetan-3-yl)acetamide], the IC50 in test [1] came out at 0.038 µM; in test [2], 0.018 µM; in test [3], 8 nM.
The corresponding values for `CNc1nccc2ccc(N[C@H]3CC[C@H](CNc4ncc(C(N)=O)cn4)CC3)nc12` [Compound C61, 2-((((1,4-trans)-4-((8-(methylamino)-1,7-naphthyridin-2-yl)amino)cyclohexyl)methyl)amino)pyrimidine-5-carboxamide] are 0.049 µM, 0.032 µM and 41 nM.
The corresponding values for `O=C(NC1COC1)C(F)(F)c1cnc(NC[C@H]2CC[C@H](Nc3ccc4ccnc(Cl)c4n3)CC2)nc1` [Compound C77, 2-(2-((((1,4-trans)-4-((8-chloro-1,7-naphthyridin-2-yl)amino)cyclohexyl)methyl)amino)pyrimidin-5-yl)-2,2-difluoro-N-(oxetan-3-yl)acetamide] are 0.012 µM, 0.025 µM and 2 nM.

As a reminder, the IC50 is the midpoint of a concentration-inhibition curve.
